These results are taken from ChEMBL document CHEMBL2021830, “Chlorinated englerins with selective inhibition of renal cancer cell growth” (2012).

Format in all cases: functional
One assay deals with SN12C. As to the kind of experiment: Growth inhibition of human SN12C cells after 48 hrs by SRB assay.
Another assay relates to RXF 393. The assay is described as follows: Growth inhibition of human RXF393 cells after 48 hrs by SRB assay.
The next assay concerns ACHN. As to the kind of experiment: Growth inhibition of human ACHN cells after 48 hrs by SRB assay.
In another assay the test system is A498. The assay is described as follows: Growth inhibition of human A498 cells after 48 hrs.
In a further assay the test system is UO-31. As to the kind of experiment: Growth inhibition of human UO31 cells after 48 hrs.
For a further assay, the system named is 786-0. The assay is described as follows: Growth inhibition of human 786-0 cells after 48 hrs by SRB assay.
Another assay has as its system CAKI-1. As to the kind of experiment: Growth inhibition of human CAKI-1 cells after 48 hrs by SRB assay.
In another assay the test system is TK-10. The assay is described as follows: Growth inhibition of human TK10 cells after 48 hrs by SRB assay.

As to `CC(C)[C@@]12C[C@@H](OC(=O)CO)[C@@](C)(O1)[C@@H]1CC[C@@H](C)[C@H]1[C@@H]2OC(=O)/C(Cl)=C/c1ccccc1`, the GI50 came out at 560 nM with SN12C (Homo sapiens, SN12C, 48 h); 59 nM in the assay with RXF 393 (Homo sapiens, RXF 393, 48 h); 41 nM in the assay with ACHN (Homo sapiens, ACHN, 48 h); 28 nM with A498 (Homo sapiens, A498, 48 h); 35 nM with UO-31 (Homo sapiens, UO-31, 48 h); 10000 nM with 786-0 (Homo sapiens, 786-0, 48 h). Moreover, the 50% growth inhibitory concentration (GI50) came to 390 nM with CAKI-1 (Homo sapiens, CAKI-1, 48 h) and 21000 nM in the assay on TK-10 (Homo sapiens, TK-10, 48 h).

Regarding `CC(C)[C@@]12C[C@@H](OC(=O)CO)[C@@](C)(O1)[C@@H]1CC[C@@H](C)[C@H]1[C@@H]2OC(=O)C(Cl)C(O)c1ccccc1` (single isomer, unassigned), the GI50 with SN12C was determined as 4700 nM; with RXF 393 it was 390 nM; with ACHN, 1400 nM; in the assay with A498, 660 nM; with UO-31, 1900 nM; with 786-0, 11000 nM. Besides, the GI50 in the assay on CAKI-1 is 5000 nM; in the assay with TK-10, 27000 nM.

With `CC(C)[C@@]12C[C@@H](OC(=O)CO)[C@@](C)(O1)[C@@H]1CC[C@@H](C)[C@H]1[C@@H]2OC(=O)C(Cl)C(Cl)c1ccccc1` (single isomer, unassigned; epimer 1), the GI50 in the assay on SN12C (Homo sapiens, SN12C, 48 h) was found to be 930 nM; in the assay with ACHN it was 140 nM; in the assay with A498 it was 140 nM; in the assay with UO-31, 390 nM; in the assay on 786-0 (Homo sapiens, 786-0, 48 h) it was 12000 nM; in the assay with CAKI-1, 420 nM. For the same molecule, the GI50 in the assay with TK-10 (Homo sapiens, TK-10, 48 h) is 18000 nM.

Regarding `CC(C)[C@@]12C[C@@H](OC(=O)CO)[C@@](C)(O1)[C@@H]1CC[C@@H](C)[C@H]1[C@@H]2OC(=O)C(Cl)C(O)c1ccccc1` (single isomer, unassigned; epimer 1), the GI50 in the assay with SN12C is 630 nM; in the assay with RXF 393 (Homo sapiens, RXF 393, 48 h), 510 nM; in the assay with ACHN it was 320 nM; in the assay on A498, 180 nM; in the assay on UO-31, 250 nM; with 786-0 it was 1700 nM. Besides, the GI50 in the assay with CAKI-1 was 460 nM; in the assay on TK-10 (Homo sapiens, TK-10, 48 h), 17000 nM.

As to `CC(C)[C@@]12C[C@@H](OC(=O)CO)[C@@](C)(O1)[C@@H]1CC[C@@H](C)[C@H]1[C@@H]2OC(=O)C(Cl)C(Cl)c1ccccc1` (single isomer, unassigned; epimer 2), the GI50 was 1000 nM with SN12C; 49 nM in the assay on ACHN; 67 nM with A498; 160 nM in the assay on UO-31; 160 nM with CAKI-1; 25000 nM with TK-10.
